From patent US12297235B2, “Synthetic peptide compounds and methods of use” (REALTA HOLDINGS, LLC, priority 2015, dated 2025)
Entries after “also recorded” stand apart in the source; their conditions may differ. Read-outs that look alike come from different tables or passages of the source.

Tests used:
[1] = 40 mg [160 mg/kg] i.v.
From the text: Eight animals were sacrificed at day 3, and ten were sacrificed at day 14.

Solubility in water = type: physicochemical; conditions: Table 7, PEGylated and Sar/Ala substitution peptides
[2] = Single-dose toxicology, maximum deliverable dose; type: in vivo, rat; conditions: 60 mg [240 mg/kg] i.v.
[3] = Complement-mediated hemolysis of type B erythrocytes by type O donor plasma (ATR in vitro model); type: biochemical, human; conditions: highly hemolytic type-O plasma, dose-response, maximum
Protocol: Plasma from both donors were diluted with GVBS++ (veronal buffered saline with 0.1% gelatin, 0.15 mM CaCl2 and 1 mM MgCl2) and incubated with purified erythrocytes from a B+ donor at 37° C. for 1 hour. Free hemoglobin was measured by spectrophotometer at 412 nm.

[4] = tested on: complement activation in factor B-depleted human sera; type: biochemical; conditions: 0.77 mM peptide in factor B-depleted serum; standardized to water or DMSO; Table 7
Protocol: (§1) Peptides were diluted to 0.77 mM in factor B-depleted human sera (Complement Technologies, Inc.) and incubated for 1 hour at 37° C. These peptides were then diluted with GVBS^++ to equal 2.5% serum, of which 0.25 ml was combined with 0.4 ml of GVBS^++ and 0.1 ml of sensitized sheep red blood cells (RBCs) and again incubated for 1 hour at 37° C. The procedure was stopped by the addition of 4.0 ml of GVBS^−− centrifuged for 5 minutes at 1,620×g, and the absorbance of the supernatants was read at 412 nm in a spectrophotometer. The percent lysis of each sample was standardized to that of the serum only control.
(§2) The final concentration of peptide in factor B-depleted serum was 0.77 mM. Each peptide was evaluated in triplicate and the mean values are reported. […] In the hemolytic assay, soluble peptides are standardized to water and insoluble peptides standardized to DMSO.
(§3) Polar Assortant peptides were serially diluted in undiluted factor B-depleted human sera (Complement Technologies, Inc.) and incubated for 1 hour at 37° C. Water, GVBS^++ and DMSO were included as controls. These peptides were then diluted with GVBS^++ to equal 2.5% serum, of which 0.25 ml was combined with 0.4 ml of GVBS^++ and 0.1 ml of sensitized sheep red blood cells (RBCs) and again incubated for 1 hour at 37° C. The procedure was stopped by the addition of 4.0 ml of GVBS^−−, centrifuged for 5 minutes at 1,620×g, and the absorbance of the supernatants was read at 412 nm in a spectrophotometer. The percent lysis of each sample was standardized to that of the serum only control.
(§4) The final concentration of peptide in factor B-depleted serum was 0.77 mM. […] In the hemolytic assay, soluble peptides were standardized to water and insoluble peptides standardized to DMSO.
(§5) The final concentration of peptide in factor B-depleted serum was 0.77 mM. […] In the hemolytic assay, soluble peptides are standardized to water and insoluble peptides standardized to DMSO.

[5] = type: biochemical, human; conditions: 0.77 mM peptide in factor B-depleted serum; standardized to water or DMSO; Table 6
Protocol: as §1, §2, §3, §4, §5

[6] = tested on: complement-mediated hemolysis of transfused huRBCs; test: Rat AIHTR model, xenotransfusion of human RBCs; type: in vivo, Wistar rat; conditions: prophylaxis; 40 mg PA-dPEG24 vs NS at 5 and 20 minutes (P≤0.05); CVF 130 μg i.p. 24 hours before
Protocol: This process generates 1 ml huRBCs at 80% hematocrit, which was given as a 15% transfusion to the rats.
For both experiments, animals allotted to the saline control group received NS prior to huRBC transfusion whereas the CVF group received 130 μg CVF (Complement Technologies, Inc.) intra-peritoneum (LP.) 24 hours prior to the huRBC transfusion.
Using weight-based doses of ketamine and acepromazine, animals were sedated throughout the course of the experiment with periodic monitoring of vital signs. Blood samples were collected into EDTA microtainer tubes (BD) from the animals prior to the huRBC transfusion and then at 30 seconds, 5 minutes, 20 minutes, 60 minutes and 120 minutes after the huRBC transfusion. […]
Flow cytometry was performed on the collected RBCs using a FACS Calibur flow cytometer (Becton Dickinson, Franklin Lakes, NJ) with DXP 8 Color 488/637/407 Upgrade (Cytek Development, Fremont, CA). […] Data was analyzed using FlowJo X version 10.0.7r2 (FlowJo LLC, Ashland, OR). […]
For bilirubin measurements, the pre-bleed and 120 minute plasma samples from the prophylaxis (n=8) and NS (n=7) groups were analyzed for the amount of bilirubin present using the Bilirubin Assay Kit (Sigma-Aldrich, St. Louis, MO) in half the manufacturer's recommend volume. […]

[7] = tested on: hypoxic ischemic brain injury; type: in vivo, Wistar rat; conditions: CVF injection before ligation/hypoxia
HSV-1 = test: HSV-1-GFP infection of CV-1 cells, flow cytometry; type: cell-based; conditions: 16 hours
Protocol: CV-1 cells were infected with HSV-1-GFP for 16 hours. Post-infection, CV-1 cells were detected by flow cytometry (FIG. 33). […] Acyclovir (the standard of care for severe HSV-1 infections) was also added as a control at the same molar ratio.

Compound: CC[C@H](C)[C@H](N)C(=O)N[C@@H](C)C(=O)N[C@@H](CC(C)C)C(=O)N[C@H](C(=O)N[C@@H](CC(C)C)C(=O)N[C@@H](CCC(=O)O)C(=O)N1CCC[C@H]1C(=O)N[C@H](C(=O)N[C@@H](CS)C(=O)N[C@@H](CS)C(=O)N[C@@H](CCC(N)=O)C(=O)N[C@@H](CCC(=O)O)C(=O)N[C@@H](CCCNC(=N)N)C(=O)N[C@@H](C)C(=O)N[C@@H](C)C(=O)NCCOCCOCCOCCOCCOCCOCCOCCOCCOCCOCCOCCOCCOCCOCCOCCOCCOCCOCCOCCOCCOCCOCCOCCOCCC(=O)O)[C@@H](C)CC)[C@@H](C)CC [PA-dPEG24]
- ALT ([1]; 48 Hr (n = 8)): 62.8 U/L
- AST ([1]; 48 Hr (n = 8)): 108 U/L
- AlkPhos ([1]; 48 Hr (n = 8)): 104 U/L
- BUN ([1]; 48 Hr (n = 8)): 17.8 mg/dL
- Bilirubin ([1]; 48 Hr (n = 8)): 0.1 mg/dL
- CPK ([1]; 48 Hr (n = 8)): 538 U/L
- Creatinine ([1]; 48 Hr (n = 8)): 0.3 mg/dL
- GGT ([1]; 48 Hr (n = 8)): 1.0 U/L
- Lipase ([1]; 48 Hr (n = 8)): 11.8 U/L
- Platelets ([1]; 48 Hr (n = 8)): 987 10^3/μL
- RBC ([1]; 48 Hr (n = 8)): 5.8 10^6/μL
- ALT ([1]; Day 14 (n = 10)): 77.4 U/L
- AST ([1]; Day 14 (n = 10)): 111 U/L
- AlkPhos ([1]; Day 14 (n = 10)): 115 U/L
- BUN ([1]; Day 14 (n = 10)): 13.2 mg/dL
- Bilirubin ([1]; Day 14 (n = 10)): 0.1 mg/dL
- CPK ([1]; Day 14 (n = 10)): 592 U/L
- Creatinine ([1]; Day 14 (n = 10)): 0.3 mg/dL
- GGT ([1]; Day 14 (n = 10)): 1.1 U/L
- Lipase ([1]; Day 14 (n = 10)): 6.4 U/L
- Platelets ([1]; Day 14 (n = 10)): 825 10^3/μL
- RBC ([1]; Day 14 (n = 10)): 6.6 10^6/μL
- Organ histology ([1]; day 3 and day 14): no histological evidence for toxicity
- Blood chemistry assay results (CBC, superchem, coagulation) ([1]; pretreatment vs day 3 or day 14): no differences
- Solubility in water (Solubility in water): Yes
- ALT ([2]; 48 Hr (n = 6)): 44.0 U/L
- AST ([2]; 48 Hr (n = 6)): 69.0 U/L
- AlkPhos ([2]; 48 Hr (n = 6)): 194 U/L
- BUN ([2]; 48 Hr (n = 6)): 15.8 mg/dL
- Bilirubin ([2]; 48 Hr (n = 6)): 0.1 mg/dL
- CPK ([2]; 48 Hr (n = 6)): 142 U/L
- Creatinine ([2]; 48 Hr (n = 6)): 0.3 mg/dL
- GGT ([2]; 48 Hr (n = 6)): 1 U/L
- Lipase ([2]; 48 Hr (n = 6)): 10.3 U/L
- Platelets ([2]; 48 Hr (n = 6)): 1045 10^3/μL
- RBC ([2]; 48 Hr (n = 6)): 5.3 10^6/μL
- ALT ([2]; Day 7 (n = 6)): 76.3 U/L
- AST ([2]; Day 7 (n = 6)): 84.3 U/L
- AlkPhos ([2]; Day 7 (n = 6)): 147 U/L
- BUN ([2]; Day 7 (n = 6)): 13.5 mg/dL
- Bilirubin ([2]; Day 7 (n = 6)): 0.1 mg/dL
- CPK ([2]; Day 7 (n = 6)): 316 U/L
- Creatinine ([2]; Day 7 (n = 6)): 0.4 mg/dL
- GGT ([2]; Day 7 (n = 6)): 1 U/L
- Lipase ([2]; Day 7 (n = 6)): 8.5 U/L
- Platelets ([2]; Day 7 (n = 6)): 623 10^3/μL
- RBC ([2]; Day 7 (n = 6)): 5.8 10^6/μL
- ALT ([2]; Day 14 (n = 6)): 55.8 U/L
- AST ([2]; Day 14 (n = 6)): 104 U/L
- AlkPhos ([2]; Day 14 (n = 6)): 154 U/L
- BUN ([2]; Day 14 (n = 6)): 14.7 mg/dL
- Bilirubin ([2]; Day 14 (n = 6)): 0.1 mg/dL
- CPK ([2]; Day 14 (n = 6)): 580 U/L
- Creatinine ([2]; Day 14 (n = 6)): 0.4 mg/dL
- GGT ([2]; Day 14 (n = 6)): 1 U/L
- Lipase ([2]; Day 14 (n = 6)): 9.7 U/L
- Blood work (CBC and complete blood chemistry) toxicities ([2]; first 24 hours, 48 hours, day 7 or day 14): No toxicities
- percent inhibition of hemolysis [3]: > 95%
- Hemolysis (%) [4]: 2.99%
- hemolysis [5]: 2.99%

Compound: cobra venom factor [CVF]
- Free hemoglobin in plasma [6]: low levels of free hemoglobin
- Systemic complement activity and brain injury [7]: almost completely eliminated; also recorded: almost completely attenuated brain injury

Compound: Nc1nc2c(ncn2COCCO)c(=O)[nH]1 [Acyclovir]
- Inhibition of HSV-1 replication (HSV-1): never able to completely inhibit replication
